Target: CFTR-mediated chloride transport (Homo sapiens, UniProt P13569)
Type: cell-based
Conditions: enteroid cells incubated with test compound 18-24 hours, acute 10 μM forskolin and 300 nM Compound III; for Max. Activity: % of chloride transport with 3 μM Compound A, 3 μM Compound II and 300 nM acute Compound III triple combination control
Summary of the method: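 Human intestinal enteroid cells incubated with compound 18–24 h at 37° C., then membrane potential dye (FLIPR) read 15 min after chloride-free stimulation with 10 μM forskolin, 100 μM IBMX and 300 nM Compound III. AUC expressed as % of triple-combination control (3 μM Compound A, 3 μM Compound II, 300 nM Compound III).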

CFTR-mediated chloride transport, sequence (P13569 whole entry, looked up): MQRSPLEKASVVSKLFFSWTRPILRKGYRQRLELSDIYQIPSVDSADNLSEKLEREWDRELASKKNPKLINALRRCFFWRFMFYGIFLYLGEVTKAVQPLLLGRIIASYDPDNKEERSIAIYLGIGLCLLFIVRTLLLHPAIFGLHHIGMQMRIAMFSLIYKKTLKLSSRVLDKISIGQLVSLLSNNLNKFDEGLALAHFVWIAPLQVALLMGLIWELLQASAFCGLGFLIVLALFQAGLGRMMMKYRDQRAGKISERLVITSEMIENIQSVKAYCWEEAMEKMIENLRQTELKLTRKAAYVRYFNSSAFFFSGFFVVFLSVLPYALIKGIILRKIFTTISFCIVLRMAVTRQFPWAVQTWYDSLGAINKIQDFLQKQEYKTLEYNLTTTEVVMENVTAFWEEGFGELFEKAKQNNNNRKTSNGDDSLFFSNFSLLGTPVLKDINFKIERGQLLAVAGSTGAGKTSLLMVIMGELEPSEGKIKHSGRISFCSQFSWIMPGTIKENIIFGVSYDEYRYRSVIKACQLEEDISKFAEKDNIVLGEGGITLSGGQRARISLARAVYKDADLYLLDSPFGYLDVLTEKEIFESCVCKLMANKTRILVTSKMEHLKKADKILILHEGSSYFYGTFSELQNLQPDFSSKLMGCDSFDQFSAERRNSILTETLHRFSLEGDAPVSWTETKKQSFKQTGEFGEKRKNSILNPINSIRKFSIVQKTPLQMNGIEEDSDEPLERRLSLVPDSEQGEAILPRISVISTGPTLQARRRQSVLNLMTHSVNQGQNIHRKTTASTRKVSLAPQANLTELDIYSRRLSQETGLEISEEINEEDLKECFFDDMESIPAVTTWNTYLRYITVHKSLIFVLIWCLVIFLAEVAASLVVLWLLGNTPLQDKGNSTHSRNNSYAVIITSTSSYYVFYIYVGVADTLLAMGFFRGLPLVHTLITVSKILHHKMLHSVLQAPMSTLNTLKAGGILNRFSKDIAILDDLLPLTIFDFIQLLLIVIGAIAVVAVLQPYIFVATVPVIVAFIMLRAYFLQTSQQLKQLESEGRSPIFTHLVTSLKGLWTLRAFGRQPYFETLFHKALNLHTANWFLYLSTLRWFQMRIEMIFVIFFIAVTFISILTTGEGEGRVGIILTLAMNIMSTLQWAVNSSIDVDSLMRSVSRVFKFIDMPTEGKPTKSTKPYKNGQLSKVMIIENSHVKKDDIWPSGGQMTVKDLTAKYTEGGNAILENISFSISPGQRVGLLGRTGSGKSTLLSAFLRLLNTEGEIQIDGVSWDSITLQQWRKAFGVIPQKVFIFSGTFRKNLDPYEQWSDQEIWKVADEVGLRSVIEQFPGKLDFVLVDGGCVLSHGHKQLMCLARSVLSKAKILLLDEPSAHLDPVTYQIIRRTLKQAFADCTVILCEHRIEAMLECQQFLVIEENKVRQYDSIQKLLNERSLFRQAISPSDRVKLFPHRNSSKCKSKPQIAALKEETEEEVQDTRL

Question: For `CC1(C)C[C@H]2CCNc3cccc(n3)S(=O)(=O)NC(=O)c3ccc(-n4ccc(OCC5(C(F)(F)F)CC5)n4)nc3N1C2` (single isomer, unassigned) [Compound 5, 7,7-dimethyl-11-(3-{[1-(trifluoromethyl)cyclopropyl]methoxy}-1H-pyrazol-1-yl)-17λ^6-thia-2,8,10,16,22-pentaazatetracyclo[16.3.1.1(5,8).0(9,14)]tricosa-1(21),9(14),10,12,18(22),19-hexaene-15,17,17-trione], which EC50 is on record?
Answer: < 1000 nM

Question: What about the “Max. Activity” value of the same compound?
Answer: +++ (+++ is >60%)

Question: For `CC1(C)C[C@@H]2CCCNc3cccc(n3)S(=O)(=O)NC(=O)c3ccc(N4CCN(CCC56CC7CC(CC(C7)C5)C6)C4=O)nc3N1C2` [Compound 228, (14S)-8-{3-[2-(Adamantan-1-yl)ethyl]-2-oxoimidazolidin-1-yl}-12,12-dimethyl-2λ^6-thia-3,9,11,18,23-pentaazatetracyclo[17.3.1.111,14.05,10]tetracosa-1(22),5,7,9,19(23),20-hexaene-2,2,4-trione], which EC50 is on record?
Answer: < 1000 nM

Question: What about the “Max. Activity” value of the same compound?
Answer: ++ (++ is 30-60%)

Question: How did the EC50 turn out when `CC1(C)C[C@H]2CCCCn3ccc(n3)S(=O)(=O)NC(=O)c3ccc(-n4ccc(OCCCC5(C(F)(F)F)CC5)n4)nc3N1C2` (single isomer, unassigned) [Compound 276, 21,21-dimethyl-4-(3-{3-[1-(trifluoromethyl)cyclopropyl]propoxy}-1H-pyrazol-1-yl)-10λ^6-thia-1,3,9,14,23-pentaazatetracyclo[17.2.1.111,14.02,7]tricosa-2,4,6,11(23),12-pentaene-8,10,10-trione] was run?
Answer: < 1000 nM

Question: What about the “Max. Activity” value of the same compound?
Answer: ++ (++ is 30-60%)

Question: For `Cc1ccc2nc1NCCC[C@H]1CN(c3nc(-n4ccc(OCCC5(C(F)(F)F)CC5)n4)ccc3C(=O)NS2(=O)=O)C(C)(C)C1` (single isomer, unassigned) [Compound 114, 12,12,20-trimethyl-8-(3-{2-[1-(trifluoromethyl)cyclopropyl]ethoxy}-1H-pyrazol-1-yl)-2λ^6-thia-3,9,11,18,23-pentaazatetracyclo[17.3.1.111,14.05,10]tetracosa-1(23),5(10),6,8,19,21-hexaene-2,2,4-trione], which EC50 is on record?
Answer: > 3000 nM

Question: What about the “Max. Activity” value of the same compound?
Answer: + (+ is <30%)

Question: Which EC50 does the source give for `C[C@@H]1CC[C@H]2CN(c3nc(-n4ccc(OCCC5(C(F)(F)F)CC5)n4)ccc3C(=O)NS(=O)(=O)c3cccc(n3)N1)C(C)(C)C2` (single isomer, unassigned) [Compound 59, 12,12,17-trimethyl-8-(3-{2-[1-(trifluoromethyl)cyclopropyl]ethoxy}-1H-pyrazol-1-yl)-2λ^6-thia-3,9,11,18,23-pentaazatetracyclo[17.3.1.111,14.05,10]tetracosa-1(23),5(10),6,8,19,21-hexaene-2,2,4-trione] here?
Answer: < 1000 nM

Question: What about the “Max. Activity” value of the same compound?
Answer: +++ (+++ is >60%)

Question: Which results are given for `CC1(C)C[C@@H]2CCCNc3cccc(n3)S(=O)(=O)NC(=O)c3ccc(N4CC[C@H](CCC5C6(CC6)C56CC6)C4=O)nc3N1C2` (single isomer, unassigned) [Compound 178]?
Answer: EC50: < 1000 nM; Max. Activity: +++ (+++ is >60%)

Question: Which EC50 does the source give for `CC1(C)C[C@@H]2CCCNc3cccc(n3)S(=O)(=O)NC(=O)c3ccc(N4CC[C@H](OCCC5(C(F)(F)F)CC5)C4=O)nc3N1C2` (single isomer, unassigned) [Compound 173] here?
Answer: < 1000 nM

Question: And the “Max. Activity” value?
Answer: +++ (+++ is >60%)

Question: `CC1(C)CCC(CN2CCN(c3ccc4c(n3)N3C[C@@H](CCCNc5cccc(n5)S(=O)(=O)NC4=O)CC3(C)C)C2=O)CC1` [Compound 217, (14S)-8-{3-[(4,4-Dimethylcyclohexyl)methyl]-2-oxoimidazolidin-1-yl}-12,12-dimethyl-2λ^6-thia-3,9,11,18,23-pentaazatetracyclo[17.3.1.111,14.05,10]tetracosa-1(22),5,7,9,19(23),20-hexaene-2,2,4-trione] was tested. Which EC50 did it give?
Answer: < 1000 nM

Question: And the “Max. Activity” value?
Answer: ++ (++ is 30-60%)

Question: `Cc1c2cnn1CCCC1CN(c3nc(-n4ccc(OCC(C)(C)C(F)(F)F)n4)ccc3C(=O)NS2(=O)=O)C(C)(C)C1` (centres unmarked) [Compound 280, 20,20,22-trimethyl-4-[3-(3,3,3-trifluoro-2,2-dimethylpropoxy)-1H-pyrazol-1-yl]-10λ^6-thia-1,3,9,13,14-pentaazatetracyclo[16.2.1.111,14.02,7]docosa-2,4,6,11(22),12-pentaene-8,10,10-trione] was tested. Which EC50 did it give?
Answer: < 1000 nM

Question: And the “Max. Activity” value?
Answer: ++ (++ is 30-60%)

Question: How did the EC50 turn out when `CC(C)(C)CCN1CCN(c2ccc3c(n2)N2C[C@@H](CCCNc4cccc(n4)S(=O)(=O)NC3=O)CC2(C)C)C1=O` [Compound 128, (14S)-8-[3-(3,3-dimethylbutyl)-2-oxoimidazolidin-1-yl]-12,12-dimethyl-2λ^6-thia-3,9,11,18,23-pentaazatetracyclo[17.3.1.111,14.05,10]tetracosa-1(22),5,7,9,19(23),20-hexaene-2,2,4-trione] was run?
Answer: < 1000 nM

Question: And the “Max. Activity” value?
Answer: +++ (+++ is >60%)

Question: `CC1(C)C[C@H]2CCCCn3ccc(n3)S(=O)(=O)NC(=O)c3ccc(-n4ccc(OCCCC5(C(F)(F)F)CC5)n4)nc3N1C2` (single isomer, unassigned) [Compound 277, 21,21-dimethyl-4-(3-{3-[1-(trifluoromethyl)cyclopropyl]propoxy}-1H-pyrazol-1-yl)-10λ^6-thia-1,3,9,14,23-pentaazatetracyclo[17.2.1.111,14.02,7]tricosa-2,4,6,11(23),12-pentaene-8,10,10-trione] was tested. Which EC50 did it give?
Answer: > 3000 nM

Question: And the “Max. Activity” value?
Answer: + (+ is <30%)

Question: What does the source list for `CC1(C)C[C@@H]2CCCNc3cccc(n3)S(=O)(=O)NC(=O)c3ccc(-n4ccc(OCC[C@@H](O)C5(C(F)(F)F)CC5)n4)nc3N1C2` (single isomer, unassigned) [Compound 297]?
Answer: EC50: < 1000 nM; Max. Activity: +++ (+++ is >60%)

Question: With `CC1(C)CC[C@H]2CCCNc3cccc(n3)S(=O)(=O)NC(=O)c3ccc(-n4ccc(OCC5C6(CC6)C56CC6)n4)nc3N21` (single isomer, unassigned) [Compound 125, 8-[3-({Dispiro[2.0.2.1]heptan-7-yl}methoxy)-1H-pyrazol-1-yl]-12,12-dimethyl-2λ^6-thia-3,9,11,19,24-pentaazatetracyclo[18.3.1.05,10.011,15]tetracosa-1(23),5(10),6,8,20(24),21-hexaene-2,2,4-trione] as the compound, how does the EC50 read?
Answer: < 1000 nM

Question: What about the “Max. Activity” value of the same compound?
Answer: + (+ is <30%)

Question: How did the EC50 turn out when `CC1(C)C[C@H]2C[C@@H](F)CNc3cccc(n3)S(=O)(=O)NC(=O)c3ccc(-n4ccc(OCCC5C6(CC6)C56CC6)n4)nc3N1C2` (single isomer, unassigned) [Compound 306, 8-[3-(2-{dispiro[2.0.2.1]heptan-7-yl}ethoxy)-1H-pyrazol-1-yl]-16-fluoro-12,12-dimethyl-2λ^6-thia-3,9,11,18,23-pentaazatetracyclo[17.3.1.111,14.05,10]tetracosa-1(22),5,7,9,19(23),20-hexaene-2,2,4-trione] was run?
Answer: < 1000 nM

Question: What about the “Max. Activity” value of the same compound?
Answer: +++ (+++ is >60%)

Question: `CC1(C)C[C@@H]2CN1c1nc(-n3ccc(OCCC(C4CC4)C4CC4)n3)ccc1C(=O)NS(=O)(=O)c1cccc(n1)NCCO2` (single isomer, unassigned) [Compound 163, 8-[3-(3,3-dicyclopropylpropoxy)-1H-pyrazol-1-yl]-12,12-dimethyl-15-oxa-2λ^6-thia-3,9,11,18,23-pentaazatetracyclo[17.3.1.111,14.05,10]tetracosa-1(23),5,7,9,19,21-hexaene-2,2,4-trione] was tested. Which EC50 did it give?
Answer: < 1000 nM

Question: What about the “Max. Activity” value of the same compound?
Answer: ++ (++ is 30-60%)

Question: `CC1(C)C[C@H]2CCCCOc3ccc(cn3)S(=O)(=O)NC(=O)c3ccc(-n4ccc(OCCC5(C(F)(F)F)CC5)n4)nc3N1C2` (single isomer, unassigned) [Compound 104, 12,12-dimethyl-8-(3-{2-[1-(trifluoromethyl)cyclopropyl]ethoxy}-1H-pyrazol-1-yl)-19-oxa-2λ^6-thia-3,9,11,21-tetraazatetracyclo[18.2.2.111,14.05,10]pentacosa-1(23),5,7,9,20(24),21-hexaene-2,2,4-trione] was tested. Which EC50 did it give?
Answer: > 3000 nM

Question: And the “Max. Activity” value?
Answer: + (+ is <30%)

Question: How did the EC50 turn out when `CC1(C)C[C@H]2CCNc3cccc(n3)S(=O)(=O)NC(=O)c3ccc(-n4ccc(OCCC5(C(F)(F)F)CC5)n4)nc3N1C2` (single isomer, unassigned) [Compound 27, 7,7-dimethyl-11-(3-{2-[1-(trifluoromethyl)cyclopropyl]ethoxy}-1H-pyrazol-1-yl)-17λ^6-thia-2,8,10,16,22-pentaazatetracyclo[16.3.1.15,8.09,14]tricosa-1(21),9,11,13,18(22),19-hexaene-15,17,17-trione] was run?
Answer: < 1000 nM

Question: And the “Max. Activity” value?
Answer: +++ (+++ is >60%)

Question: Which results are given for `CC1(C)C[C@H]2CCCNc3ccc(cn3)S(=O)(=O)NC(=O)c3ccc(-n4ccc(OCCC5(C(F)(F)F)CC5)n4)nc3N1C2` (single isomer, unassigned) [Compound 73, 12,12-dimethyl-8-(3-{2-[1-(trifluoromethyl)cyclopropyl]ethoxy}-1H-pyrazol-1-yl)-2λ^6-thia-3,9,11,18,20-pentaazatetracyclo[17.2.2.111,14.05,10]tetracosa-1(22),5,7,9,19(23),20-hexaene-2,2,4-trione]?
Answer: EC50: < 1000 nM; Max. Activity: +++ (+++ is >60%)

Question: Which EC50 does the source give for `CC1(C)C[C@H]2CCNc3cccc(n3)S(=O)(=O)NC(=O)c3ccc(-n4ccc(OCCCC5(C(F)(F)F)CC5)n4)nc3N1C2` (single isomer, unassigned) [Compound 234, 7,7-dimethyl-11-(3-{3-[1-(trifluoromethyl)cyclopropyl]propoxy}-1H-pyrazol-1-yl)-17λ^6-thia-2,8,10,16,22-pentaazatetracyclo[16.3.1.15,8.09,14]tricosa-1(22),9,11,13,18,20-hexaene-15,17,17-trione] here?
Answer: < 1000 nM

Question: What about the “Max. Activity” value of the same compound?
Answer: ++ (++ is 30-60%)

From patent publication US11866450B2, “Modulators of Cystic Fibrosis Transmembrane Conductance regulator, pharmaceutical compositions, methods of treatment, and process for making the modulators” (priority 2018, dated 2024)
